Active and inactive are the calls of the source. The calls are words filed in the database; no cut-off is given here.
Legend:
PBMC [1] = test: Induction of proinflammatory cytokine release in human PBMC after 12 hrs; format: cell-based
[2] = target: T1, Toll-like receptor 8 (Homo sapiens) (UniProt Q9NR97); test: (§1) Agonist activity at human TLR8 expressed in HEK293 cells assessed as induction of NF-kappaB activity by measuring extracellular secreted alkaline phosphatase by HEK-blue reporter gene assay; format: functional, cell-based
T1 sequence (whole entry): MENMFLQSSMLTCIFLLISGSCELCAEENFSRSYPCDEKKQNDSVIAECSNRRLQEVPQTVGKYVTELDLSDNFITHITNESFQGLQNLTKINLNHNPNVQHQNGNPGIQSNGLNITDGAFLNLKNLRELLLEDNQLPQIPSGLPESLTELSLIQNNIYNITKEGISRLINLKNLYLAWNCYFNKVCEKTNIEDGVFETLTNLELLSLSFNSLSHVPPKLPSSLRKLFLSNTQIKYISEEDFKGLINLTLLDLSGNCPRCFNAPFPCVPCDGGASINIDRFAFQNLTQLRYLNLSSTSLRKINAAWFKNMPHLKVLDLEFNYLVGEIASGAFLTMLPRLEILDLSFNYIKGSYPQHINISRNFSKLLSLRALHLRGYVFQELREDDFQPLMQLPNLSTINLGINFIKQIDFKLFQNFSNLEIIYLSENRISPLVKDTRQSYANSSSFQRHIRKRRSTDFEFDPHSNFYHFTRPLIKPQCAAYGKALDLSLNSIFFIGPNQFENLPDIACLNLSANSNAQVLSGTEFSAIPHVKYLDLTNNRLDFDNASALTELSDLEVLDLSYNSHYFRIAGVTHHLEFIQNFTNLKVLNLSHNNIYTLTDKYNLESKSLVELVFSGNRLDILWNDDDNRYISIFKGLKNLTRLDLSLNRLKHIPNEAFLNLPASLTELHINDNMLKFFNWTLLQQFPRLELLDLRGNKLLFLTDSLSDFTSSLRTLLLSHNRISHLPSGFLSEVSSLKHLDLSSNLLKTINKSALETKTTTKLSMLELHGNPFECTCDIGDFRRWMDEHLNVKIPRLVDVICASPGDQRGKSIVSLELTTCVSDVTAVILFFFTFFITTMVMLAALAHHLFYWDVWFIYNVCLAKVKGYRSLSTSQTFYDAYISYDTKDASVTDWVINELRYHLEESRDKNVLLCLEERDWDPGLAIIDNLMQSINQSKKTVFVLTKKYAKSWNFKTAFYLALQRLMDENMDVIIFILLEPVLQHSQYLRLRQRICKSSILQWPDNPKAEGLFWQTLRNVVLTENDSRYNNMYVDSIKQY

Toll-like receptor 8 = target: T2, Toll-like receptor 8 (Homo sapiens, UniProt Q9NR97); test: as §1; format: functional, cell-based; conditions: read-out: EC50
T2 sequence (Q9NR97 whole entry): T1 sequence (whole entry)

PBMC [3] = test: Induction of transcriptional signature of inflammatory gene expression in human PBMC cells after 2 hrs; format: cell-based
PBMC [4] = test: Up-regulation of CCL gene in human PBMC cells after 2 hrs; format: cell-based
PBMC [5] = test: Up-regulation of CXCL gene in human PBMC cells after 2 hrs; format: cell-based
[6] = target: T3, Toll-like receptor 7 (Homo sapiens) (UniProt Q9NYK1); test: Agonist activity at human TLR7 expressed in HEK293 cells assessed as induction of NF-kappaB activity by measuring extracellular secreted alkaline phosphatase up to 250 uM by HEK-blue reporter gene assay; format: functional, cell-based
T3 sequence (whole entry): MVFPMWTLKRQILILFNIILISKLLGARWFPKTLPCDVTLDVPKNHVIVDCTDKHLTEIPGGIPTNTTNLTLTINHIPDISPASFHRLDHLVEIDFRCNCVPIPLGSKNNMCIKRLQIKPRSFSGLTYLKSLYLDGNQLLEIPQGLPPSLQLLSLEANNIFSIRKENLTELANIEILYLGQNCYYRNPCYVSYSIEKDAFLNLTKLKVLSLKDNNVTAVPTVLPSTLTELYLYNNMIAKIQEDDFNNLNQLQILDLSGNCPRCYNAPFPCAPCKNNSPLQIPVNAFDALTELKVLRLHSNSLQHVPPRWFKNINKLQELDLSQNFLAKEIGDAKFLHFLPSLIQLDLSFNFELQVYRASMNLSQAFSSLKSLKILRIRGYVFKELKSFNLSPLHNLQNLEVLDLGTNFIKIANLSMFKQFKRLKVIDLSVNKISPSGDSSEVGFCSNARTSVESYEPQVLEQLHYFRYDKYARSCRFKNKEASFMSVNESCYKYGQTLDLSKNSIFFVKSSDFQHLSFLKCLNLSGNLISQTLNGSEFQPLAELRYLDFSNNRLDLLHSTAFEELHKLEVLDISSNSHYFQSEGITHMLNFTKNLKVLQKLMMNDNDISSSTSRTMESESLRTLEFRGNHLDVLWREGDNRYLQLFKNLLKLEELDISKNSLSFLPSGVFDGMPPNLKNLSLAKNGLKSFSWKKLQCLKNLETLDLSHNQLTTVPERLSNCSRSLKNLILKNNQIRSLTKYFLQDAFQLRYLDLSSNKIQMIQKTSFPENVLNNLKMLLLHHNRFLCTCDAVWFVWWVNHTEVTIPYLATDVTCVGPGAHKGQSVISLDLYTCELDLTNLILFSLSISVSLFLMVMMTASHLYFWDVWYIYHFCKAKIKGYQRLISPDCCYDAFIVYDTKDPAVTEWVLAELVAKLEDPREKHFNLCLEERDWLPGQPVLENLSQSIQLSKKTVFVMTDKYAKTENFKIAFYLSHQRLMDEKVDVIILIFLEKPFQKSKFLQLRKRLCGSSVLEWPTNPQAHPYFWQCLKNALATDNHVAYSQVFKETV

[7] = target: Toll-like receptor 5 (Homo sapiens) (UniProt O60602); test: Agonist activity at human TLR5 expressed in HEK293 cells assessed as induction of NF-kappaB activity by measuring extracellular secreted alkaline phosphatase up to 250 uM by HEK-blue reporter gene assay; format: functional, cell-based
Sequence of Toll-like receptor 5 (Homo sapiens) (O60602 whole entry): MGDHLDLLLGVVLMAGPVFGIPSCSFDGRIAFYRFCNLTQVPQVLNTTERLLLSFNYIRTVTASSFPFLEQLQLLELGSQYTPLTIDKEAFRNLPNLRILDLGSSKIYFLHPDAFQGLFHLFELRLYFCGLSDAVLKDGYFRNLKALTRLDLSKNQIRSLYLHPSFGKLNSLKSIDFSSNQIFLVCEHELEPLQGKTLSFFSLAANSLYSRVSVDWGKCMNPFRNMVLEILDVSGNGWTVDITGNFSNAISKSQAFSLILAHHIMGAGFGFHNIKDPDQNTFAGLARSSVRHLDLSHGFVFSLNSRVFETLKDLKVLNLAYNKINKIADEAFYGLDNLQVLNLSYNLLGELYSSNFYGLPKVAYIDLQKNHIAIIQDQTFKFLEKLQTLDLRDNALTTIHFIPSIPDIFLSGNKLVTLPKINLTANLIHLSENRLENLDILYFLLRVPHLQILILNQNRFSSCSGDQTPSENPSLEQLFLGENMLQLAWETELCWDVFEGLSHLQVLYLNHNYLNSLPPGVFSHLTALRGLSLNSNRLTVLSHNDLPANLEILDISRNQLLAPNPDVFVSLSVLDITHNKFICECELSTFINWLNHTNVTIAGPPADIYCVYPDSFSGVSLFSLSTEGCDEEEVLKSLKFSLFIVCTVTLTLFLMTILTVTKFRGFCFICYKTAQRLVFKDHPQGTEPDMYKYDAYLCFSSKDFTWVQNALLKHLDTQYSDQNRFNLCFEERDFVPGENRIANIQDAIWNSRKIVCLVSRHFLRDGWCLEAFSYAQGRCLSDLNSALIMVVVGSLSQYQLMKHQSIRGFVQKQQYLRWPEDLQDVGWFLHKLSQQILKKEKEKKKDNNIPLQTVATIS

[8] = target: T4, Toll-like receptor 9 (Homo sapiens) (UniProt Q9NR96); test: Agonist activity at human TLR9 expressed in HEK293 cells assessed as induction of NF-kappaB activity by measuring extracellular secreted alkaline phosphatase up to 250 uM by HEK-blue reporter gene assay; format: functional, cell-based
T4 sequence (whole entry): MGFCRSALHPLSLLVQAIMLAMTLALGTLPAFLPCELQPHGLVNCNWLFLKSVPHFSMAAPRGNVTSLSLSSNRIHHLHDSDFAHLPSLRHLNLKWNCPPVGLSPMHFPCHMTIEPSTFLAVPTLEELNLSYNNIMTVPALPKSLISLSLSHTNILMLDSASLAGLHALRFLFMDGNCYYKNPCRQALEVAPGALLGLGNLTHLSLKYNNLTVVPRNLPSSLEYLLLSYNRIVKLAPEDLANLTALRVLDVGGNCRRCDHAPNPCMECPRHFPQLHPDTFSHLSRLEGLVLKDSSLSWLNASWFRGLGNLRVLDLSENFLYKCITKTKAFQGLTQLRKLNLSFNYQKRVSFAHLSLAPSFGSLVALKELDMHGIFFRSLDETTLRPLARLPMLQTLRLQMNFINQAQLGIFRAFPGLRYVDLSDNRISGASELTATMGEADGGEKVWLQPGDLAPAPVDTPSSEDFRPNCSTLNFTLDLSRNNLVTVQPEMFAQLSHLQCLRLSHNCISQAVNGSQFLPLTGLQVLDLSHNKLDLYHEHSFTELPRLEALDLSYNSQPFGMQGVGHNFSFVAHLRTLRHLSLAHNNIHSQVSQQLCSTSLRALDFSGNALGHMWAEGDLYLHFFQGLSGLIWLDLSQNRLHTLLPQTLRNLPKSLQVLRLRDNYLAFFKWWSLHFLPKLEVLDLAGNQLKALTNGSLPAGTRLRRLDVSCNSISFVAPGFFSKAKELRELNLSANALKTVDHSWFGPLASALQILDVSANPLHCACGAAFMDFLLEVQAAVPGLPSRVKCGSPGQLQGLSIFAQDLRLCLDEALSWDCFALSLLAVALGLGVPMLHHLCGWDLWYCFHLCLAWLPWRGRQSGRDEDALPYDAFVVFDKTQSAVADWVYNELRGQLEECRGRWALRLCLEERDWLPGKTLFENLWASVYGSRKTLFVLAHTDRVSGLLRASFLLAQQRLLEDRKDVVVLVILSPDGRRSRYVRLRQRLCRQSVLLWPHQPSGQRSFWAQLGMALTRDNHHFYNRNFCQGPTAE

[9] = target: Toll-like receptor 3 (Homo sapiens) (UniProt O15455); test: Agonist activity at human TLR3 expressed in HEK293 cells assessed as induction of NF-kappaB activity by measuring extracellular secreted alkaline phosphatase up to 250 uM by HEK-blue reporter gene assay; format: functional, cell-based
Sequence of Toll-like receptor 3 (Homo sapiens) (O15455 whole entry): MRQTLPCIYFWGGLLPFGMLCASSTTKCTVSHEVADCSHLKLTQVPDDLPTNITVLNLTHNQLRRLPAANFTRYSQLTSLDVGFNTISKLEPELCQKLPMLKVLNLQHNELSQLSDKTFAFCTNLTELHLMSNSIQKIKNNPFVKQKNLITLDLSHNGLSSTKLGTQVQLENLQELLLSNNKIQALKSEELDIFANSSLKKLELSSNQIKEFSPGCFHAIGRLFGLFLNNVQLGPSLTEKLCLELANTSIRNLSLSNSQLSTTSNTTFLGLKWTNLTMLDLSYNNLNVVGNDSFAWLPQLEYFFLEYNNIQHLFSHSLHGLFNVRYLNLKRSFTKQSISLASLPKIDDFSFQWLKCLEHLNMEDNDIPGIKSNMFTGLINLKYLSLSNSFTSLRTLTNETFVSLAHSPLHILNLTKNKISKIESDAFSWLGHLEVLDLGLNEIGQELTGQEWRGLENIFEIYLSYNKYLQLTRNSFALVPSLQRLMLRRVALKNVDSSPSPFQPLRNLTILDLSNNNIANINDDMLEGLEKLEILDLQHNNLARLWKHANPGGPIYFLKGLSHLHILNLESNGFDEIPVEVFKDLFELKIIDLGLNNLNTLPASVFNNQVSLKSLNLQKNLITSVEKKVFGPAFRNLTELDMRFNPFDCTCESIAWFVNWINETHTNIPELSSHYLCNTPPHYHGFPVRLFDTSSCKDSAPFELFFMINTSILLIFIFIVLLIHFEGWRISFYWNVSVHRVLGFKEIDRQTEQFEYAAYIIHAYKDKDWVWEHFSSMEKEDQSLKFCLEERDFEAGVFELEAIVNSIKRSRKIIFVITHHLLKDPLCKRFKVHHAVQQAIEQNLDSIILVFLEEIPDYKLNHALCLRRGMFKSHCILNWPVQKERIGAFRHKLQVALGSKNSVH

[10] = target: T1, Toll-like receptor 8 (Homo sapiens); test: Agonist activity at human TLR8 expressed in HEK293 cells assessed as induction of NF-kappaB activity by measuring extracellular secreted alkaline phosphatase up to 250 uM by HEK-blue reporter gene assay; format: functional, cell-based
[11] = target: Toll-like receptor 4 (Homo sapiens) (UniProt O00206); test: Agonist activity at human TLR4 expressed in HEK293 cells assessed as induction of NF-kappaB activity by measuring extracellular secreted alkaline phosphatase up to 250 uM by HEK-blue reporter gene assay; format: functional, cell-based
Sequence of Toll-like receptor 4 (Homo sapiens) (O00206 whole entry): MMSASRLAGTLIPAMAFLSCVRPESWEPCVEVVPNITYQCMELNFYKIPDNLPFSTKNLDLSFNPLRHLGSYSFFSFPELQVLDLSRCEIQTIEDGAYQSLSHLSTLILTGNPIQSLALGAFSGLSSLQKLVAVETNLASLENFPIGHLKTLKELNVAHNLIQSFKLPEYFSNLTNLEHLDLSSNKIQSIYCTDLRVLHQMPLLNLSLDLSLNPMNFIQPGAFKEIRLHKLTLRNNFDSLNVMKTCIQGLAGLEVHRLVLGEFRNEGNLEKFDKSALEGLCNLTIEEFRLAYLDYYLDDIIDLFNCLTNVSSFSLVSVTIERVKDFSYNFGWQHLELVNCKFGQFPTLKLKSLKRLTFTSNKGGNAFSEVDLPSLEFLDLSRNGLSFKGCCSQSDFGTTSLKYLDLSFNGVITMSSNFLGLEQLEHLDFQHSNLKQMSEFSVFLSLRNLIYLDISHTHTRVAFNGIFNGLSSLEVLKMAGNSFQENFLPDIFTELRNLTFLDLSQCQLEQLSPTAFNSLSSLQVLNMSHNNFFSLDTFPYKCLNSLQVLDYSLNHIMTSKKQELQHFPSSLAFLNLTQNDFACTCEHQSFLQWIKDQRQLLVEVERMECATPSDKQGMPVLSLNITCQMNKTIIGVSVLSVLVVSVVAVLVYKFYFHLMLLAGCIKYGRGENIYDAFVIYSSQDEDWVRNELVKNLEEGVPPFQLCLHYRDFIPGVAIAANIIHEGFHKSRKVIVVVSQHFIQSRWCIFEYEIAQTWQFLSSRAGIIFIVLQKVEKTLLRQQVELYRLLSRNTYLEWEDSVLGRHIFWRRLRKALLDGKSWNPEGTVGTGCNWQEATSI

Oryctolagus cuniculus = organism: Oryctolagus cuniculus; test: Adjuvantic activity in New Zealand White rabbit immunized with bovine alpha-lactalbumin on day 1, 15, and 28 assessed as anti-alpha-lactalbumin IgG level in serum at 100 ug measured on day 38 by ELISA; format: functional, organism-based

## CCCc1nc2c(N)nc3ccccc3c2s1
PBMC [1]
  Activity: Toxic

## CCCCNc1oc2c(C)ncc(CO)c2c1Nc1ccccn1
PBMC [1]
  Activity: Non-toxic
[2]
  Activity: Dose-dependent effect
Toll-like receptor 8
  EC50: 9.38 µM

## Cc1ncc(CO)c2c(Nc3ccccn3)c(NCc3ccccc3)oc12
PBMC [1]
  Activity: Non-toxic
[2]
  Activity: Dose-dependent effect
Toll-like receptor 8
  EC50: 4.91 µM

## Cc1ncc(CO)c2c(Nc3ccccn3)c(NC[Si](C)(C)C)oc12
PBMC [1]
  Activity: Non-toxic
PBMC [3]
  Activity: Non-toxic
[2]
  Activity: Dose-dependent effect
Toll-like receptor 8
  EC50: 4.99 µM
PBMC [4]
  Activity: Toxic
PBMC [5]
  Activity: Toxic

## c1ccc(CNc2c(-c3ccncc3)nc3cnccn23)cc1
[6]
  Activity: inactive
[7]
  Activity: inactive
[8]
  Activity: inactive
[9]
  Activity: inactive
[10]
  Activity: inactive
[11]
  Activity: inactive

## CCCCCNc1oc2c(C)ncc(CO)c2c1Nc1ccccn1
PBMC [1]
  Activity: Non-toxic
Oryctolagus cuniculus
  Activity: Active
PBMC [3]
  Activity: Non-toxic
[2]
  Activity: Dose-dependent effect
Toll-like receptor 8
  EC50: 5.81 µM
PBMC [4]
  Activity: Toxic
PBMC [5]
  Activity: Toxic

## Nc1nccn2c(NC3CCCCC3)c(-c3ccc(-c4ccccc4)cc3)nc12
[6]
  Activity: inactive
[7]
  Activity: inactive
[8]
  Activity: inactive
[9]
  Activity: inactive
[10]
  Activity: inactive
[11]
  Activity: inactive

## Oc1ccccc1-c1nc2ccccn2c1NC1CCCCC1
[6]
  Activity: inactive
[7]
  Activity: inactive
[8]
  Activity: inactive
[9]
  Activity: inactive
[10]
  Activity: inactive
[11]
  Activity: inactive

## c1ccc(CNc2c(-c3ccncc3)nc3ccccn23)cc1
[6]
  Activity: inactive
[7]
  Activity: inactive
[8]
  Activity: inactive
[9]
  Activity: inactive
[10]
  Activity: inactive
[11]
  Activity: inactive

## Oc1ccccc1-c1nc2ccccn2c1NCc1ccccc1
[6]
  Activity: inactive
[7]
  Activity: inactive
[8]
  Activity: inactive
[9]
  Activity: inactive
[10]
  Activity: inactive
[11]
  Activity: inactive

## c1cc(-c2nc3cnccn3c2NC2CCCCC2)ccn1
[6]
  Activity: inactive
[7]
  Activity: inactive
[8]
  Activity: inactive
[9]
  Activity: inactive
[10]
  Activity: inactive
[11]
  Activity: inactive

## CCCCc1nc2c(N)nccn2c1NCc1ccccc1
[6]
  Activity: inactive
[7]
  Activity: inactive
[8]
  Activity: inactive
[9]
  Activity: inactive
[10]
  Activity: inactive
[11]
  Activity: inactive

## Oc1ccccc1-c1nc2cnccn2c1NCc1ccccc1
[6]
  Activity: inactive
[7]
  Activity: inactive
[8]
  Activity: inactive
[9]
  Activity: inactive
[10]
  Activity: inactive
[11]
  Activity: inactive

## CC(C)(C)Nc1c(-c2ccccc2)nc2cnccn12
[6]
  Activity: inactive
[7]
  Activity: inactive
[8]
  Activity: inactive
[9]
  Activity: inactive
[10]
  Activity: inactive
[11]
  Activity: inactive

## CC(C)(C)Nc1c(-c2ccccc2O)nc2cnccn12
[6]
  Activity: inactive
[7]
  Activity: inactive
[8]
  Activity: inactive
[9]
  Activity: inactive
[10]
  Activity: inactive
[11]
  Activity: inactive

## c1ccn2c(NC3CCCCC3)c(-c3ccncc3)nc2c1
[6]
  Activity: inactive
[7]
  Activity: inactive
[8]
  Activity: inactive
[9]
  Activity: inactive
[10]
  Activity: inactive
[11]
  Activity: inactive

## Nc1nccn2c(NC3CCCCC3)c(-c3ccccc3)nc12
[6]
  Activity: inactive
[7]
  Activity: inactive
[8]
  Activity: inactive
[9]
  Activity: inactive
[10]
  Activity: inactive
[11]
  Activity: inactive

— ChEMBL document CHEMBL2176888, “Structure-activity relationships in human Toll-like receptor 8-active 2,3-diamino-furo[2,3-c]pyridines” (J Med Chem, 2012)
